Reference: paper PMC3720801, “A Proline-Hinge Alters the Characteristics of the Amphipathic α-helical AMPs” (PLoS ONE, 2013)
Converted amounts (≈) assume the structure as drawn. Peptide text beside a SMILES is read from it.

Legend:
S. aureus (KCTC 1621) = conditions: broth microdilution, 1% bactopeptone, 5×10^3 CFU/ml, 10 h at 37°C, OD 620 nm, triplicate
[1] = test system: Proteus vulgaris (KCTC 2433); conditions: broth microdilution, 1% bactopeptone, 5×10^3 CFU/ml, 10 h at 37°C, OD 620 nm, triplicate
[2] = test system: Staphylococcus epidermidis (KCTC 1917); conditions: broth microdilution, 1% bactopeptone, 5×10^3 CFU/ml, 10 h at 37°C, OD 620 nm, triplicate
[3] = test system: Saccharomyces cerevisiae (KCTC 7296); conditions: MTT assay, YPD pH 5.5, 24 h at 28°C, absorbance 570 nm, triplicate
[4] = test system: Bacillus subtilis (KCTC 1918); conditions: broth microdilution, 1% bactopeptone, 5×10^3 CFU/ml, 10 h at 37°C, OD 620 nm, triplicate
[5] = test system: Trichosporon beigelii (KCTC 7707); test: Antifungal MTT assay MIC; assay type: cell-based; conditions: YPD pH 5.5, 24 h at 28°C, absorbance 570 nm, triplicate
[6] = test system: Candida albicans (KCTC 7270); conditions: MTT assay, YPD pH 5.5, 24 h at 28°C, absorbance 570 nm, triplicate
[7] = test system: Salmonella typhimurium (KCTC 1926); conditions: broth microdilution, 1% bactopeptone, 5×10^3 CFU/ml, 10 h at 37°C, OD 620 nm, triplicate
[8] = test system: Escherichia coli (KCTC 1682); conditions: broth microdilution, 1% bactopeptone, 5×10^3 CFU/ml, 10 h at 37°C, OD 620 nm, triplicate
[9] = test system: Pseudomonas aeruginosa (KCTC 1637); conditions: broth microdilution, 1% bactopeptone, 5×10^3 CFU/ml, 10 h at 37°C, OD 620 nm, triplicate
T. begellii = test: Confocal laser-scanning microscopy, localization of FITC-conjugated peptides; assay type: cell-based; conditions: 15 min at 28°C
[10] = FITC-dextran leakage from liposomes; conditions: 10 µM peptide, peptide/lipid 1/10, 25°C, FITC fluorescence
Protocol: FITC-labeled dextrans (FD-4, 10, 20, 40, 70 and 500) were utilized as model cytoplasmic components. FD (fluorescein isothiocyanate dextrans), with average molecular masses of 4, 10, 20, 40, 70, and 500 kDa were all purchased from the Sigma Chemical Co. (St. Louis, MO). FD-entrapping liposomes (unilamellar vesicles) with different lipid compositions were prepared using the reverse-phase evaporation method, after which the concentrations of the FD-entrapping vesicles were determined in triplicate using a phosphorus assay. To prepare FD-entrapping liposomes, a buffer solution (buffer II: PBS) containing 2 mg/ml of the FD was sonicated for 30 min with a lipid solution in chloroform (20 mg/ml) on ice. The chloroform was then gradually removed using a rotary vacuum evaporator at 25°C, resulting first in the formation of a viscous gel and then a liposome suspension. Buffer (2 ml) was added, and the suspension was evaporated further to remove the remaining solvent. The liposome suspensions were then centrifuged and washed for several cycles at 22,000×gav for 30 min in order to remove unentrapped-FD. The washed liposomes were extruded 30 times through polycarbonate filters (two stacked 0.4-µm pore size filters) using an Avanti Mini-Extruder (Avanti Polar Lipids inc., Alabaster, AL) to obtain liposomes of homogeneous size (∼400 nm). Aliquots of the peptide solutions at appropriate concentrations were incubated with a suspension of FD-loaded liposomes (100 µM) for 1–20 min at 25°C, and were then centrifuged for 30 min at 22,000×g. The supernatants were recovered and the leakage was recorded by monitoring the FITC fluorescence intensity (excitation wavelength: 494 nm, emission wavelength: 520 nm). 100% leakage was achieved by addition of Triton X-100 to a final concentration of 1 mM. The percent leakage value was then plotted.

[11] = test system: plasmid DNA (pBluescript SK(+)); test: DNA gel retardation; assay type: binding; conditions: plasmid DNA 100 ng, 10 min at 37°C, agarose gel
[12] = In vitro binding assay to insoluble polysaccharide; conditions: 100 µg polysaccharide + 5 µg peptide, room temperature 1 h, SDS-PAGE
Protocol: Chitin (β-1,4-N-acetyl-D-glucosamine), chitosan (β-1,4-D-glucosamine), cellulose (β-1,4-glucan), curdlan (β-1,3-glucan) and peptidoglycan (β-1,4-glycosidic linkage between N-acetyl muramic and N-acetylglucosamine) were used for the in vitro binding assay of Anal 3-Pro. One hundred µg of each insoluble polysaccharide was added in 5 µg of purified Anal 3-Pro and incubated at room temperature with mild agitation for 1 h. The mixture was centrifuged (10,000×g for 2 min) and the pellet was washed three times with 1 ml of washing buffer (10 mM Tris, pH 7.5, 500 mM NaCl, 0.02% Tween 20). The peptide bound to insoluble polysaccaharide was detached by adding SDS-polyacrylamide gel electrophoresis sample buffer.

C. albicans cells = test: Flow cytometric analysis of cell membrane permeability (PI uptake); assay type: cell-based, Candida albicans; conditions: 30 min on ice, 12.5 µM Anal 3 or melittin, peptides at MIC
Protocol: Membrane integrity following peptide treatment was evaluated using flow cytometry. Anal 3, Anal 3-Pro or melittin (control) was added to C. albicans cells (2×10^5 cells in YPD media) to the MIC, after which cell membrane permeabilization was detected by incubating the treated cells in 50 µg/ml propidium iodide (PI) for 30 min at 4°C. After removing the unbound dye by extensively washing with PBS, the cells were subjected to flow cytometric analysis using a FACScalibur flow cytometer (Becton Dickinson, San Jose, CA). PI fluorescence was monitored in the FL2-H channel.

| Compound | MIC G(+) SA (S. aureus (KCTC 1621)) [µM] | MIC G(−) PV [1] [µM] | MIC G(+) SE [2] [µM] | MIC Yeast SC [3] [µM] | MIC G(+) BS [4] [µM] | MIC Yeast TB [5] [µM] | MIC Yeast CA [6] [µM] | MIC G(−) ST [7] [µM] | MIC G(−) EC [8] [µM] | MIC G(−) PA [9] [µM] | intracellular localization of FITC-conjugated peptide (T. begellii) | release of FD4 from PC/CH liposomes [10] [%] | release of FD4 from PE/PG liposomes [10] [%] | release of larger FD markers from PC/CH vesicles [10] | release of larger FD markers from PE/PG liposomes [10] | amount of peptide at which retardation of the pDNA band was detected [11] [µg] | binding to chitin [12] | PI influx (membrane permeabilization), in words (C. albicans cells) |
| --- | --- | --- | --- | --- | --- | --- | --- | --- | --- | --- | --- | --- | --- | --- | --- | --- | --- | --- |
| CC[C@H](C)[C@H](NC(=O)[C@H](CCCCN)NC(=O)[C@H](CO)NC(=O)[C@H](Cc1ccccc1)NC(=O)[C@H](CC(C)C)NC(=O)[C@H](CCCCN)NC(=O)[C@H](CCC(=O)O)NC(=O)[C@H](CC(C)C)NC(=O)[C@H](CCCNC(=N)N)NC(=O)[C@H](CCCCN)NC(=O)[C@H](Cc1ccccc1)NC(=O)[C@@H](NC(=O)[C@H](CCCCN)NC(=O)[C@H](CCCCN)NC(=O)[C@H](C)N)C(C)C)C(=O)N[C@@H](CCC(N)=O)C(=O)N[C@@H](CC(N)=O)C(=O)N[C@@H](Cc1c[nH]c2ccccc12)C(=O)N[C@@H](CCCCN)C(N)=O [Anal 1] (H-AKKVFKRLEKLFSKIQNWK-NH2) | 3.13 (≈ 7.48 µg/mL) | 1.56 (≈ 3.73 µg/mL) | 0.78 (≈ 1.86 µg/mL) | 12.5 (≈ 29.9 µg/mL) | 1.56 (≈ 3.73 µg/mL) | 6.25 (≈ 14.9 µg/mL) | 12.5 (≈ 29.9 µg/mL) | 0.39 (≈ 0.932 µg/mL) | 1.56 (≈ 3.73 µg/mL) | 6.25 (≈ 14.9 µg/mL) | – | – | – | – | – | – | – | – |
| CC[C@H](C)[C@H](NC(=O)[C@H](CCCCN)NC(=O)[C@H](CO)NC(=O)[C@H](Cc1ccccc1)NC(=O)[C@H](CC(C)C)NC(=O)[C@H](CCCCN)NC(=O)[C@H](CCC(=O)O)NC(=O)[C@H](CC(C)C)NC(=O)[C@H](CCCNC(=N)N)NC(=O)[C@H](CCCCN)NC(=O)[C@H](Cc1ccccc1)NC(=O)[C@@H](NC(=O)[C@H](CCCCN)NC(=O)[C@H](CCCCN)NC(=O)[C@H](C)N)C(C)C)C(=O)N[C@@H](Cc1c[nH]c2ccccc12)C(=O)N[C@@H](CC(N)=O)C(=O)N[C@@H](CC(=O)O)C(=O)N[C@@H](CCCCN)C(N)=O [Anal 2] (H-AKKVFKRLEKLFSKIWNDK-NH2) | 3.13 (≈ 7.44 µg/mL) | 1.56 (≈ 3.71 µg/mL) | 1.56 (≈ 3.71 µg/mL) | 12.5 (≈ 29.7 µg/mL) | 1.56 (≈ 3.71 µg/mL) | 6.25 to 12.5 | 12.5 (≈ 29.7 µg/mL) | 0.78 (≈ 1.85 µg/mL) | 1.56 (≈ 3.71 µg/mL) | 6.25 (≈ 14.9 µg/mL) | – | – | – | – | – | – | – | – |
| CC[C@H](C)[C@H](NC(=O)[C@H](CCCCN)NC(=O)[C@H](CO)NC(=O)[C@H](Cc1ccccc1)NC(=O)[C@H](CC(C)C)NC(=O)[C@H](CCCCN)NC(=O)[C@H](CCC(=O)O)NC(=O)[C@H](CC(C)C)NC(=O)[C@H](CCCNC(=N)N)NC(=O)[C@H](CCCCN)NC(=O)[C@H](Cc1ccccc1)NC(=O)[C@@H](NC(=O)[C@H](CCCCN)NC(=O)[C@H](CCCCN)NC(=O)[C@H](C)N)C(C)C)C(=O)N[C@@H](Cc1c[nH]c2ccccc12)C(=O)N[C@@H](CC(N)=O)C(=O)N[C@@H](Cc1c[nH]c2ccccc12)C(=O)N[C@@H](CCCCN)C(N)=O [Anal 3] (H-AKKVFKRLEKLFSKIWNWK-NH2) | 1.56 (≈ 3.82 µg/mL) | 1.56 (≈ 3.82 µg/mL) | 0.78 (≈ 1.91 µg/mL) | 3.13 to 6.25 | 0.78 (≈ 1.91 µg/mL) | 3.13 (≈ 7.67 µg/mL) | 6.25 (≈ 15.3 µg/mL) | 0.39 (≈ 0.955 µg/mL) | 0.78 (≈ 1.91 µg/mL) | 3.13 (≈ 7.67 µg/mL) | – | – | – | – | – | – | – | – |
| CC[C@H](C)[C@H](NC(=O)[C@H](CCCCN)NC(=O)[C@H](CO)NC(=O)[C@H](Cc1ccccc1)NC(=O)[C@H](CO)NC(=O)[C@H](CCCCN)NC(=O)[C@H](CCC(=O)O)NC(=O)[C@H](CC(C)C)NC(=O)[C@H](CCCNC(=N)N)NC(=O)[C@H](CCCCN)NC(=O)[C@H](Cc1ccccc1)NC(=O)[C@@H](NC(=O)[C@H](CCCCN)NC(=O)[C@H](CCCCN)NC(=O)[C@H](C)N)C(C)C)C(=O)N[C@@H](CCC(N)=O)C(=O)N[C@@H](CC(N)=O)C(=O)N[C@@H](CC(=O)O)C(=O)N[C@@H](CCCCN)C(N)=O [Anal 4] (H-AKKVFKRLEKSFSKIQNDK-NH2) | >12.5 | 6.25 (≈ 14.3 µg/mL) | 12.5 (≈ 28.7 µg/mL) | 50 (≈ 115 µg/mL) | 6.25 (≈ 14.3 µg/mL) | 50 (≈ 115 µg/mL) | 50 to 100 | 1.56 (≈ 3.58 µg/mL) | 12.5 (≈ 28.7 µg/mL) | >12.5 | – | – | – | – | – | – | – | – |
| CC[C@H](C)[C@H](NC(=O)[C@H](CCCCN)NC(=O)[C@H](CO)NC(=O)[C@H](Cc1ccccc1)NC(=O)[C@H](CC(C)C)NC(=O)[C@H](CCCCN)NC(=O)[C@H](CCC(=O)O)NC(=O)[C@H](CC(C)C)NC(=O)[C@H](CCCNC(=N)N)NC(=O)[C@H](CCCCN)NC(=O)[C@H](CO)NC(=O)[C@@H](NC(=O)[C@H](CCCCN)NC(=O)[C@H](CCCCN)NC(=O)[C@H](C)N)C(C)C)C(=O)N[C@@H](CCC(N)=O)C(=O)N[C@@H](CC(N)=O)C(=O)N[C@@H](CC(=O)O)C(=O)N[C@@H](CCCCN)C(N)=O [Anal 5] (H-AKKVSKRLEKLFSKIQNDK-NH2) | >12.5 | 3.13 (≈ 7.07 µg/mL) | 6.25 (≈ 14.1 µg/mL) | 50 to 100 | 3.13 (≈ 7.07 µg/mL) | 50 (≈ 113 µg/mL) | 100 (≈ 226 µg/mL) | 3.13 (≈ 7.07 µg/mL) | 6.25 (≈ 14.1 µg/mL) | >12.5 | – | – | – | – | – | – | – | – |
| CC[C@H](C)[C@H](NC(=O)[C@H](CCCCN)NC(=O)[C@H](CO)NC(=O)[C@H](Cc1ccccc1)NC(=O)[C@H](CC(C)C)NC(=O)[C@H](CCCCN)NC(=O)[C@H](CCC(=O)O)NC(=O)[C@H](CC(C)C)NC(=O)[C@H](CCCNC(=N)N)NC(=O)[C@H](CCCCN)NC(=O)[C@H](Cc1ccccc1)NC(=O)[C@@H](NC(=O)[C@H](CCCCN)NC(=O)[C@H](CCCCN)NC(=O)[C@H](C)N)C(C)C)C(=O)N[C@@H](CCC(N)=O)C(=O)N[C@@H](CC(N)=O)C(=O)N[C@@H](CC(=O)O)C(=O)N[C@@H](CCCCN)C(N)=O [HP (2–20), reference compound] (H-AKKVFKRLEKLFSKIQNDK-NH2) | 12.5 (≈ 29 µg/mL) | 3.13 (≈ 7.26 µg/mL) | 3.13 (≈ 7.26 µg/mL) | 25 (≈ 58 µg/mL) | 1.56 (≈ 3.62 µg/mL) | 12.5 to 25 | 25 (≈ 58 µg/mL) | 0.78 (≈ 1.81 µg/mL) | 6.25 (≈ 14.5 µg/mL) | 12.5 (≈ 29 µg/mL) | – | – | – | – | – | – | – | – |
| buforin II | – | – | – | – | – | – | – | – | – | – | distributed throughout the fungal cells | 3.6 | 5 | unable to release any of the larger markers | unable to release any of the larger markers | 1 | recognized only chitin | – |
| melittin: antimicrobial peptide known to target the cell membrane | – | – | – | – | – | – | – | – | – | – | – | – | – | – | – | – | – | large influx of PI |
